Target: T1, human B1R receptor (hB1R) (Homo sapiens, UniProt P46663)
T1 construct: expressed in transfected cells; host or cells: CHO K1 cells
T1 sequence (P46663 1-353): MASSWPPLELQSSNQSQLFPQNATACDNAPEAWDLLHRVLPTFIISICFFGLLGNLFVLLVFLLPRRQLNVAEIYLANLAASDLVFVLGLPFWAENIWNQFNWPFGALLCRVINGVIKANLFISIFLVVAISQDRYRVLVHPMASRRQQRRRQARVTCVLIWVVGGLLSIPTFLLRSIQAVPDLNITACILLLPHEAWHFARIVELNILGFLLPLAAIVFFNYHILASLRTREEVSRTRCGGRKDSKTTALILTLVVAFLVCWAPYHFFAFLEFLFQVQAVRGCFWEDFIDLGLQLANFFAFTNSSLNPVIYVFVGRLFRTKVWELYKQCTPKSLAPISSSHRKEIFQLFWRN
Test: Functional investigation on the bradykinin 1 receptor (B1R), FLIPR Ca2+ assay, hB1R cells
Type: cell-based
Conditions: CHO K1 cells with human B1R, agonist Lys-Des-Arg9 bradykinin, % of maximum achievable inhibition; for inhibition at 10 µM: CHO-K1, 10 μM test substance, read-out: B1R antagonism, human [10 μM] % inhibition
Experimental: The agonistic or antagonistic action of substances can be quantified on the bradykinin 1 receptor (B1R) of the human and rat species with ectopically expressing cell lines (CHO K1 cells) and with the aid of a Ca^2+-sensitive dye (Fluo-4) using a fluorescent imaging plate reader (FLIPR). The indication in % activation is based on the Ca^2+ signal after addition of Lys-Des-Arg^9 bradykinin (0.5 nM) or Des-Arg^9 bradykinin (100 nM). Antagonists lead to a suppression of the Ca^2+ influx following administration of the agonist. The % inhibition in comparison with the maximum achievable inhibition is indicated.
1. Functional Investigation on the Bradykinin 1 Receptor (B1R)
The agonistic or antagonistic action of substances can be determined on the bradykinin 1 receptor (B1R) of the human and rat species with the following assay. According to this assay, the Ca^2+ inflow through the channel is quantified with the aid of a Ca^2+-sensitive dye (Fluo-4 type, Molecular Probes Europe BV, Leiden, Netherlands) in a fluorescent imaging plate reader (FLIPR, Molecular Devices, Sunnyvale, USA).
Chinese hamster ovary cells (CHO K1 cells) which are stably transfected with the human B1R gene (hB1R cells) or the B1R gene of the rat (rB1R cells) are used. For functional investigations these cells are plated-out onto black 96-well plates with a clear base (BD Biosciences, Heidelberg, Germany or Greiner, Frickenhausen, Germany) in a density of 20,000-35,000 cells/well. Overnight the cells are incubated at 37° C. and 5% CO2 in culture medium (hB1R cells: Ham's Nutrient Mixture F12, Gibco Invitrogen GmbH, Karlsruhe, Germany or DMEM, Sigma-Aldrich, Taufkirchen, Germany; rB1R cells: D-MEM/F12, Gibco Invitrogen, Karlsruhe, Germany) with 10 vol. % FBS (foetal bovine serum, Gibco Invitrogen GmbH, Karlsruhe, Germany or PAN Biotech GmbH, Aidenbach, Germany).
On the following day the cells are loaded with 2.13 μM Fluo-4 (Molecular Probes Europe BV, Leiden, Netherlands) in HBSS buffer (Hank's buffered saline solution, Gibco Invitrogen GmbH, Karlsruhe, Germany) with 2.5 mM probenecid (Sigma-Aldrich, Taufkirchen, Germany) and 10 mM HEPES (Sigma-Aldrich, Taufkirchen, Germany) for 60 min at 37° C. The plates are subsequently washed twice with HBSS buffer, and HBSS buffer which additionally contains 0.1% BSA (bovine serum albumin; Sigma-Aldrich, Taufkirchen, Germany), 5.6 mM glucose and 0.05% gelatine (Merck KGaA, Darmstadt, Germany) is added. After a further incubation of 20 minutes at room temperature, the plates are inserted into the FLIPR for Ca^2+ measurement.
Alternatively they are washed with buffer A (15 mM HEPES, 80 mM NaCl, 5 mM KCl, 1.2 mM CaCl2, 0.7 mM MgSO4, 2 g/l glucose, 2.5 mM probenecid) and loaded with buffer A with added 2.5 μM Fluo-4 and 0.025% Pluronic F127 (Sigma-Aldrich, Taufkirchen, Germany). The cells are then washed twice with buffer A and incubated for 30 minutes with buffer A, which additionally contains 0.05% BSA and 0.05% gelatine, at room temperature and then used for Ca^2+ measurement in the FLIPR. The Ca^2+-dependent fluorescence is measured here before and after addition of substances (λex=488 nm, λem=540 nm). The quantification is performed by measuring the highest fluorescence intensity (FC, fluorescence counts) over time.
The FLIPR protocol comprises two additions of substance. Test substances (10 μM) are first pipetted onto the cells and the Ca^2+ inflow is compared with the control (hB1R: Lys-Des-Arg^9 bradykinin>=50 nM; rB1R: Des-Arg^9 bradykinin 10 μM). The value in % activation based on the Ca^2+ signal after addition of Lys-Des-Arg^9 bradykinin (>=50 nM) or Des-Arg^9 bradykinin (10 μM) is obtained therefrom. After incubation for 10-20 minutes, Lys-Des-Arg^9 bradykinin (hB1R) or Des-Arg^9 bradykinin (rB1R) is applied in the EC80 concentration and the inflow of Ca^2+ is likewise determined.
Antagonists lead to a suppression of the Ca^2+ inflow. The % inhibition in comparison with the maximum achievable inhibition is calculated. […]

COc1cc(C)c(S(=O)(=O)Nc2cccc3ccn(CCC(=O)N4CCN(CC5CCN(C)CC5)CC4)c23)c(C)c1 [G_CC-43, 4-Methoxy-2,6-dimethyl-N-[1-[3-[4-[(1-methyl-piperidin-4-yl)-methyl]-piperazin-1-yl]-3-oxo-propyl]-1H-indol-7-yl]-benzenesulfonic acid amide]
inhibition at 10 µM: 100%

Cc1cc(S(=O)(=O)Nc2cccc3ccn(CCC(=O)N4CCN(CC5CCN(C)CC5)CC4)c23)c(C)cc1Cl [G_CC-62, 4-Chloro-2,5-dimethyl-N-[1-[3-[4-[(1-methyl-piperidin-4-yl)-methyl]-piperazin-1-yl]-3-oxo-propyl]-1H-indol-7-yl]-benzenesulfonic acid amide]
inhibition at 10 µM: 94%

COc1cc(C)c(S(=O)(=O)Nc2ccc3ccn(CC(=O)N4CCC(N5CCN(C)CC5)CC4)c3c2)c(C)c1 [G_CC-2, 4-Methoxy-2,6-dimethyl-N-[1-[2-[4-(4-methyl-piperazin-1-yl)-piperidin-1-yl]-2-oxo-ethyl]-1H-indol-6-yl]-benzenesulfonic acid amide]
inhibition at 10 µM: 46%

COc1cc(C)c(S(=O)(=O)Nc2cccc3ccn(CC(=O)N4CCC5(CC4)CCN(c4ccncc4)CC5)c23)c(C)c1 [Compound G-05, 4-Methoxy-2,6-dimethyl-N-[1-[2-oxo-2-(9-pyridin-4-yl-3,9-diazaspiro[5.5]undecan-3-yl)-ethyl]-1H-indol-7-yl]-benzenesulfonic acid amide]
B1R antagonism, human [10 μM] % inhibition (10 μM test substance): 100%

O=C(Cn1ccc2cccc(N3Cc4cccc(Cl)c4C3=O)c21)N1CCC2(CC1)CCN(c1ccncc1)CC2 [Compound G-11, 7-Chloro-2-(1-(2-oxo-2-(9-(pyridin-4-yl)-3,9-diazaspiro[5.5]undecan-3-yl)ethyl)-1H-indol-7-yl)isoindolin-1-one]
inhibition at 10 µM: 46%

Cc1ccc2n1C(=O)N(c1ccc3ccn(CC(=O)N4CCC5(CC4)CCN(c4ccncc4)CC5)c3c1)C2 [Compound G-27, 5-Methyl-2-[1-[2-oxo-2-(9-pyridin-4-yl-3,9-diazaspiro[5.5]undecan-3-yl)-ethyl]-1H-indol-6-yl]-1,2-dihydro-pyrrolo[2,1-e]imidazol-3-one]
inhibition at 10 µM: 96%

COc1cc(C)c(S(=O)(=O)Nc2cccc3ccn(CC(=O)N4CCC5(CCN(c6ccncc6)CC5)C4)c23)c(C)c1 [Compound G-14, 4-Methoxy-2,6-dimethyl-N-(1-(2-oxo-2-(8-(pyridin-4-yl)-2,8-diazaspiro[4.5]decan-2-yl)ethyl)-1H-indol-7-yl)benzenesulfonic acid amide]
inhibition at 10 µM: 99%

Cn1c2c(c3c(Cl)cccc31)C(=O)N(c1ccc3ccn(CC(=O)N4CCC5(CC4)CCN(c4ccncc4)CC5)c3c1)C2 [Compound G-23, 8-Chloro-4-methyl-2-[1-[2-oxo-2-(9-pyridin-4-yl-3,9-diazaspiro[5.5]undecan-3-yl)-ethyl]-1H-indol-6-yl]-3,4-dihydro-2H-pyrrolo[3,4-b]indol-1-one]
inhibition at 10 µM: 100%

O=C(Cn1ccc2ccc(N3Cc4cccc(Cl)c4C3=O)cc21)N1CCC2(CC1)CCN(c1ccncc1)CC2 [Compound G-08, 7-Chloro-2-[1-[2-oxo-2-(9-pyridin-4-yl-3,9-diazaspiro[5.5]undecan-3-yl)-ethyl]-1H-indol-6-yl]-2,3-dihydro-isoindol-1-one]
inhibition at 10 µM: 98%

COc1cc(C)c(S(=O)(=O)Nc2cccc3ccn(CC(=O)N4CCC(OCCN5CCCC5)(c5cccnc5)CC4)c23)c(C)c1 [Compound G-06, 4-Methoxy-2,6-dimethyl-N-[1-[2-oxo-2-[4-pyridin-3-yl-4-(2-pyrrolidin-1-yl-ethoxy)-piperidin-1-yl]-ethyl]-1H-indol-7-yl]-benzenesulfonic acid amide]
inhibition at 10 µM: 83%

COc1cc(C)c(S(=O)(=O)Nc2cccc3ccn(CC(=O)N4CCC(N5CCc6cc(CN7CCCCC7)ccc6C5)C4)c23)c(C)c1 (stereo not drawn) [Compound G-16, 4-Methoxy-2,6-dimethyl-N-(1-(2-oxo-2-(3-(6-(piperidin-1-ylmethyl)-3,4-dihydroisoquinolin-2(1H)-yl)pyrrolidin-1-yl)ethyl)-1H-indol-7-yl)benzenesulfonic acid amide]
inhibition at 10 µM: 100%

COc1cc(C)c(S(=O)(=O)Nc2cccc3ccn(CC(=O)N4CCC5(CC4)C(=O)NCN5c4ccccc4)c23)c(C)c1 [Compound G-04, 4-Methoxy-2,6-dimethyl-N-[1-[2-oxo-2-(1-oxo-4-phenyl-2,4,8-triazaspiro[4.5]decan-8-yl)-ethyl]-1H-indol-7-yl]-benzenesulfonic acid amide]
inhibition at 10 µM: 68%

COc1cc(C)c(S(=O)(=O)Nc2ccc3ccn(CC(=O)N(C)CCCN4CCN(c5ccncc5)CC4)c3c2)c(C)c1 [G_CC-76, 2-[6-[[(4-Methoxy-2,6-dimethyl-phenyl)sulfonyl]amino]-1H-indol-1-yl]-N-methyl-N-[3-(4-pyridin-4-yl-piperazin-1-yl)-propyl]-acetamide]
inhibition at 10 µM: 92%

COc1cc(C)c(S(=O)(=O)Nc2cccc3ccn(CC(=O)N4CCC5(CC4)CCN(c4ccncc4)CC5)c23)c(C)c1 [G_CC-91, 4-Methoxy-2,6-dimethyl-N-[1-[2-oxo-2-(3-pyridin-4-yl-3,9-diazaspiro-[5.5]undecan-9-yl)-ethyl]-1H-indol-7-yl]-benzenesulfonic acid amide]
inhibition at 10 µM: 100%

O=C(Cn1ccc2ccc(N3CCn4c(c(Cl)c5ccccc54)C3=O)cc21)N1CCC2(CC1)CCN(c1ccncc1)CC2 [Compound G-31, 10-Chloro-2-[1-[2-oxo-2-(9-pyridin-4-yl-3,9-diazaspiro[5.5]undecan-3-yl)-ethyl]-1H-indol-6-yl]-3,4-dihydro-2H-pyrazino[1,2-a]indol-1-one]
inhibition at 10 µM: 80%

COc1cc(C)c(S(=O)(=O)NCc2cccc3ccn(CC(=O)N4CCC5(CC4)CCN(c4ccncc4)CC5)c23)c(C)c1 [Compound G-24, 4-Methoxy-2,6-dimethyl-N-[[1-[2-oxo-2-(9-pyridin-4-yl-3,9-diazaspiro[5.5]undecan-3-yl)-ethyl]-1H-indol-7-yl]-methyl]-benzenesulfonic acid amide]
inhibition at 10 µM: 98%

COc1cc(C)c(S(=O)(=O)Nc2cccc3ccn(CC(=O)N(C)CCCN4CCN(c5ccncc5)CC4)c23)c(C)c1 [G_CC-88, 2-[7-[[(4-Methoxy-2,6-dimethyl-phenyl)sulfonyl]amino]-1H-indol-1-yl]-N-methyl-N-[3-(4-pyridin-4-yl-piperazin-1-yl)-propyl]-acetamide]
inhibition at 10 µM: 100%

O=C(CCn1ccc2cccc(N3Cc4cccc(Cl)c4C3=O)c21)N1CCC2(CC1)CCN(c1ccncc1)CC2 [Compound G-10, 7-Chloro-2-(1-(3-oxo-3-(9-(pyridin-4-yl)-3,9-diazaspiro[5.5]undecan-3-yl)propyl)-1H-indol-7-yl)isoindolin-1-one]
inhibition at 10 µM: 100%
